Where two headings read alike, the source gives them in different places. One block for each molecule: values may come before it.
Experiments:
apotransferrin = apotransferrin (Homo sapiens, UniProt P02787); conditions: apotransferrin 200 mg/dL, 37° C. 30 min
Procedure: In order to evaluate binding capacity of the metal ion to apotransferrin, transferrin binding capacity (Unsaturated Iron-Binding Capacity, UIBC) was measured as follows depending on the concentration of iron ion (ferric iron, FeIII+).
Specifically, in order to prepare iron ion aqueous solutions, 3.6 g of FeCl3 (Sigma Aldrich, USA) was dissolved in 400 ml of distilled water with stirring for 20 min or longer, and then the pH of the resulting solution was adjusted to 9 with continuous stirring while a 5M NaOH solution was added dropwise. When a red brownish precipitate appeared, it was stirred at 90° C. for 2 hr and was then centrifuged at 5,000 rpm for 5 min, thus obtaining a ferric hydroxide precipitate, which was then washed with distilled water and dried. The ferric hydroxide in powder form was dissolved in distilled water, yielding ferric hydroxide solutions having concentrations of […]. Each of the ferric hydroxide solutions at individual concentrations was added with 200 mg/dL of apotransferrin (Sigma Aldrich, USA), and mixed in a vortex for 1 min, followed by allowing the reaction between apotransferrin and iron ion to progress at 37° C. for 30 min.
In order to measure the unsaturated iron-binding capacity (UIBC) of apotransferrin, a Ferrozine colorimetric method was used. As the iron standard, ferrous chloride was prepared at a concentration of […] in hydroxylamine hydrochloride, and the reaction solution of apotransferrin and iron was prepared as a test group. Specifically, 2 ml of 0.5M Tris buffer (pH 8) was aliquoted into all test tubes. The blank test tube was filled with 1 ml of distilled water, the standard test tube was filled with 0.5 ml of distilled water and 0.5 ml of the iron standard, and the experimental test tube was filled with 0.5 ml of the reaction solution of apotransferrin and iron ion and 0.5 ml of the iron standard, followed by mixing in a vortex for 1 min.
A spectrophotometer was zeroed at 560 nm, and the absorbance A1 was measured. Next, a 16.6 mM Ferrozine hydroxylamine hydrochloride solution was placed in an amount of […] in each of the test tubes, followed by mixing in a vortex for 1 min. All the test tubes were cultured at 37° C. for 10 min, and the absorbance A2 at 560 nm was measured. The absorbance A560 at 560 nm was calculated by subtracting the absorbance A1 from the absorbance A2.
The unsaturated iron-binding capacity (UIBC) was calculated as follows. UIBC=[standard conc.]−[standard conc.]×Test A560/Standard A560

[1] = test system: NCI-H460-luc2 tumor xenograft; assay: Thermal cancer therapy with repeated sensitizer dosing, weekly bioluminescence imaging of tumor size over four weeks (Example 1, FIG. 13); assay type: in vivo, BALB/c athymic nude mice; conditions: i.v. three times per week, 0.1 ml of 0.2 mg/ml (iron dextran, iron sucrose) or 5 mg/ml (transferrin); 100 W 30 min or more; four weeks
Procedure: After 4 hr, thermal treatment for 30 min or more using a radio-frequency hyperthermia system (EHY-2000, Oncothermia) with an energy dose of 100 W was performed for a total of four weeks, and the size of tumorous tissue was monitored every week. […] In the group to which transferrin was administered, 0.1 ml of the transferrin aqueous solution having a concentration of 5 mg/ml was intravenously injected. As such, the non-treated group and the saline-treated group were used as controls.
In order to analyze the size of tumorous tissue, bioluminescence imaging was regularly performed at an interval of one week, and analysis was performed using Igor Pro imaging analysis software.

[2] = test system: NCI-H460-luc2 tumor xenograft; assay: Thermal cancer therapy with sensitizer, bioluminescence imaging of tumor size in the last week (Example 1, FIG. 12); assay type: in vivo, BALB/c athymic nude mice; conditions: i.v. 1 mg/kg metal ion-bound material or 20 mg/kg transferrin, 100 W 10 min, three times per week, four weeks
Procedure: Next, the potential to treat cancer was evaluated using the metal ion-bound material as the sensitizer upon thermal therapy. A lung cancer cell line NCI-H460-luc2 ([…] Sciences) was cultured, and 5×10^6 cells were subcutaneously injected into 6 to 8-week-old female BALB/c athymic nude mice (Damul Science), and the mice were bred for about 10 days so as to grow tumorous tissue to a size of 100 mm^3 or more, yielding the tumor xenograft animal models for the evaluation of cancer treatment effects. […] After 4 hr, thermal treatment was performed three times per week for a total of four weeks using a radio-frequency hyperthermia system (EHY-2000, Oncothermia) with an energy dose of 100 W for 10 min. As such, a non-treated group and a saline-treated group were set as controls. In order to analyze the size of tumorous tissue in the last week, bioluminescence imaging was performed. For bioluminescence of a luciferase-expressing cancer cell line NCI-H460-luc2, D-luciferin (Xenogen, USA) was intraperitoneally injected at a concentration of 150 mg luciferin/kg/d into the mice, the mice were anesthetized through inhalation using a mixture of isoflurane gas and oxygen, and luminous cancer cells were subjected to overlap photographing using a Xenogen imager (IVIS 200), and analyzed using Igor Pro imaging analysis software.

[3] = test system: NCI-H460-luc2 tumor xenograft; assay: Temperature of normal and tumorous tissue of tumor xenograft mice on application of electromagnetic waves after sensitizer (Example 1, FIGS. 9 to 11); assay type: in vivo, BALB/c athymic nude mice; conditions: i.v. iron sucrose 1 mg/kg or transferrin 20 mg/kg, 4 hr after administration, 100 W for 3 min
Procedure: To this end, a lung cancer cell line NCI-H460-luc2 (Califer Life Sciences) was cultured, and 5×10^6 cells were subcutaneously injected into 6 to 8-week-old female BALB/c athymic nude mice (Damul Science), and the mice were bred for about 10 days so as to grow tumorous tissue to a size of 100 mm^3 or more, yielding the tumor xenograft animal models for the evaluation of cancer treatment effects.
As the sensitizing composition for thermal therapy, iron sucrose was prepared in the same manner as in Test Example 1, and 0.1 ml of the iron sucrose aqueous solution having a concentration of 0.2 mg/ml was intravenously injected into the established tumor xenograft mice so as to reach a dose of 1 mg/kg.
As the sensitizing composition for thermal therapy, “iron ion-bound apotransferrin” (transferrin) was prepared in the same manner as in Test Example 3, and 0.1 ml of the transferrin aqueous solution having a concentration of 5 mg/ml was intravenously injected into the established tumor xenograft mice so as to reach a dose of 20 mg/kg.
As the control, saline was administered. 4 hr after administration, electromagnetic waves were applied in an energy dose of 100 W for 3 min using a radio-frequency hyperthermia system (EHY-2000, Oncothermia), and the temperatures of normal tissue and tumorous tissue were measured using a thermal imaging device (E60, Korea Rental, Korea).

[4] = In vivo accumulation of metal ion in normal and tumorous tissue, ICP-MS (Test Example 5); design: species or system BALB/c athymic nude mice; concentration of iron ion (ICP-MS): unit not given here; conditions: 1 mg/kg i.v., after 24 hr
Procedure: In order to evaluate the accumulation of the administered metal ion in tumorous tissue through in vivo animal testing, tumor xenograft animal models were manufactured as follows. Specifically, a lung cancer cell line NCI-H460-luc2 (Califer Life Sciences) was cultured, and 5×10^6 cells were subcutaneously injected into 6- to 8-week-old female BALB/c athymic nude mice (Damul Science), and the mice were bred for about 10 days so as to grow tumorous tissue to a size of 100 mm^3 or more, yielding the tumor xenograft animal models.
After 24 hr, in order to carry out inductively coupled plasma mass spectrometry (ICP-MS), 1 g of each tissue was ground using a tissue grinder in an ice bath, and 1 ml of the ground solution was dried at −60° C. in a vacuum of 7 μmHg for 24 hr. The dried powder was added with 2 ml of 6N HCl, placed in a sealed glass reactor, and cultured in an incubator at 55° C. After 12 hr or longer, each sample was mixed in a vortex and then centrifuged at 1,000 rpm for 15 min, and the supernatant was dried with nitrogen gas, added with 1 ml of 0.01N HCl, mixed in a vortex, and then centrifuged at 1,000 rpm for 15 min. The supernatant was recovered, and the concentrations of the metal ions in the normal tissue and the tumorous tissue were measured through ICP-MS (Varian 800-MS, Palo Alto, US).

apotransferrin, sequence (P02787 20-698): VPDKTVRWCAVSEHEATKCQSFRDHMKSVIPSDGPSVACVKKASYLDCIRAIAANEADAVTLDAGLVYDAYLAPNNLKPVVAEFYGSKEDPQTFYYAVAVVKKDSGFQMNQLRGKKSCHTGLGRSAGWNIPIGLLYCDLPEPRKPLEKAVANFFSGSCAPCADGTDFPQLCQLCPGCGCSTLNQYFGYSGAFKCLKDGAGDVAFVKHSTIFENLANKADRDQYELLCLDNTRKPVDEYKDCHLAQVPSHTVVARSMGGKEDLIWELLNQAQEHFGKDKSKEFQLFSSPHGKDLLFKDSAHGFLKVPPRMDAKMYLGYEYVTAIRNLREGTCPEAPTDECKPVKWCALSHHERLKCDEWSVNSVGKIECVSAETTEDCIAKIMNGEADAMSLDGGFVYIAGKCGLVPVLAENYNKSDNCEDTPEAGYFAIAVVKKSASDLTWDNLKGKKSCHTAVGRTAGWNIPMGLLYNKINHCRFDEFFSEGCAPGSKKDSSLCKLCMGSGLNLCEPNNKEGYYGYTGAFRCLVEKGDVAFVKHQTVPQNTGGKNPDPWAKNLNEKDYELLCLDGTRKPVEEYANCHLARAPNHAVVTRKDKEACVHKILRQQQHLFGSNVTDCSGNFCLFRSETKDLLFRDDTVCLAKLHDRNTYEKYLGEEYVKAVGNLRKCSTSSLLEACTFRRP

Molecule: [Fe+3].[OH-].[OH-].[OH-] [iron ion, ferric hydroxide]
UIBC (apotransferrin; Iron conc. 10 μg/dL): 498 µg/dL
UIBC (apotransferrin; Iron conc. 50 μg/dL): 481 µg/dL
UIBC (apotransferrin; Iron conc. 200 μg/dL): 332 µg/dL
UIBC (apotransferrin; Iron conc. 500 μg/dL): 119 µg/dL

Molecule: Iron dextran [reference compound]
growth of cancer upon thermal treatment using electromagnetic waves (bioluminescence imaging) [1]: significantly reduced
cancer treatment effects through thermal therapy (size of tumorous tissue, bioluminescence imaging) [2]: excellent

Fold increase of iron ion vs saline ([4]; Brain): 2.05
concentration of iron ion (ICP-MS) ([4]; Brain): 46.2 ± 8.6
Fold increase of iron ion vs saline ([4]; Heart): 3.08
concentration of iron ion (ICP-MS) ([4]; Heart): 99.2 ± 2.8
Fold increase of iron ion vs saline ([4]; Kidney): 1.05
concentration of iron ion (ICP-MS) ([4]; Kidney): 59.8 ± 4.1
Fold increase of iron ion vs saline ([4]; Liver): 2.26
concentration of iron ion (ICP-MS) ([4]; Liver): 168.2 ± 37.3
Fold increase of iron ion vs saline ([4]; Muscle): 0.98
concentration of iron ion (ICP-MS) ([4]; Muscle): 28.9 ± 22.1
Fold increase of iron ion vs saline ([4]; Stomach): 2.99
concentration of iron ion (ICP-MS) ([4]; Stomach): 83.1 ± 27.7
concentration of iron ion (ICP-MS) ([4]; Tumor): 44.4 ± 3.9
Fold increase of iron ion vs saline ([4]; Tumor, 1 mg/kg): ≥ 3.3
Fold increase of iron ion vs saline ([4]; Tumor, listed as Fe-Sucrose, 1 mg/kg): 3.29
Molecule: ferric hydroxide sucrose complex [Iron sucrose]
changes in the temperature before and after the application of electromagnetic waves ([3]; normal tissue): 1 °C
changes in the temperature before and after the application of electromagnetic waves ([3]; tumorous tissue): 1.9 °C
growth of cancer upon thermal treatment using electromagnetic waves (bioluminescence imaging) [1]: significantly reduced
cancer treatment effects through thermal therapy (size of tumorous tissue, bioluminescence imaging) [2]: excellent

Reference: patent publication US11752210B2, “Sensitizing composition using electromagnetic waves for thermal therapy of cancers, and cancer therapy using same” (JINIS CO., LTD., priority 2013, dated 2023)
